Data taken from patent US20260297060A1, “COMPOUNDS FOR THE DEGRADATION OF MUTANT BRAF” (C4 THERAPEUTICS, INC., priority 2023, published 2026).

System: A375-NRAS^Q61K cells
Assay: CTGlo Cell Viability Assay, A375-NRAS^Q61K (A375.11) cells, 96 hours
Assay type: cell-based, human
Details: A375.11 (A375-NRAS^Q61K) cells
Outline: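 A375 cells carrying BRAF V600E and NRAS Q61K were seeded at 250 cells/well with a 10-point half-log dose series (max 10 μM final). After 96 h at 37 °C, viability was read as ATP luminescence (CellTiter-Glo), background-subtracted and normalized to DMSO (100%). GI50 from 4-parameter fit; Emax is the lowest % viability.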

[1] = Homo sapiens, 96 h, lowest % viability achieved

Structure (SMILES)	GI50	GI50 (Homo sapiens, 96 h)	Emax [1]	CTGlo A375.11 96 hours Emax (lowest % viability achieved)
CCN(C)S(=O)(=O)Nc1ccc(F)c(Oc2ccc3ncn(C4CC5(CCN(C6CCC(c7cc8c(cc7F)c(N7CCC(=O)NC7=O)nn8C)CC6F)CC5)C4)c(=O)c3c2)c1F (single isomer, unassigned) [Compound 184]	1 to 10 µM		50 to 90%	
CCN(C)S(=O)(=O)Nc1ccc(F)c(Oc2ccc3ncn([C@H]4COC5(CCN(C6CC7(C6)CN(c6cc8c(cc6F)c(N6CCC(=O)NC6=O)nn8C)C7)CC5)C4)c(=O)c3c2)c1C#N [Compound 26, (3R)-3-[6-[2-cyano-3-[[ethyl(methyl)sulfamoyl]amino]-6-fluoro-phenoxy]-4-oxo-quinazolin-3-yl]-8-[2-[3-(2,4-dioxohexahydropyrimidin-1-yl)-5-fluoro-1-methyl-indazol-6-yl]-2-azaspiro[3.3]heptan-6-yl]-1-oxa-8-azaspiro[4.5]decane]		< 1 µM	50 to 90%	
CCN(C)S(=O)(=O)Nc1ccc(F)c(Oc2ccc3ncn([C@H]4COC5(CCC(N6CC7(CN(c8ccc(NC9CCC(=O)NC9=O)cc8F)C7)C6)CC5)C4)c(=O)c3c2)c1C#N (stereo partly drawn) [Compound 30, 6-[2-cyano-3-[[ethyl(methyl)sulfamoyl]amino]-6-fluoro-phenoxy]-3-[(3R)-8-[6-[4-[(2,6-dioxo-3-piperidyl)amino]-2-fluoro-phenyl]-2,6-diazaspiro[3.3]heptan-2-yl]-1-oxaspiro[4.5]decan-3-yl]-4-oxo-quinazoline]		1 to 10 µM	< 50%	
CCN(C)S(=O)(=O)Nc1ccc(F)c(Oc2ccc3ncn([C@H]4COC5(CCN(C6CC7(C6)CN(c6ccc(NC8CCC(=O)NC8=O)cc6F)C7)CC5)C4)c(=O)c3c2)c1C#N (stereo partly drawn) [Compound 35, (3R)-3-[6-[2-cyano-3-[[ethyl(methyl)sulfamoyl]amino]-6-fluoro-phenoxy]-4-oxo-quinazolin-3-yl]-8-[2-[4-[(2,6-dioxo-3-piperidyl)amino]-2-fluoro-phenyl]-2-azaspiro[3.3]heptan-6-yl]-1-oxa-8-azaspiro[4.5]decane]		1 to 10 µM	50 to 90%	
CCN(C)S(=O)(=O)Nc1ccc(F)c(Oc2ccc3ncn(C4CC5(CCN(C6CC7(C6)CN(c6cc8c(cc6F)c(N6CCC(=O)NC6=O)nn8C)C7)CC5)C4)c(=O)c3c2)c1C#N (centres unmarked) [Compound 141, 6-[2-cyano-3-[[ethyl(methyl)sulfamoyl]amino]-6-fluoro-phenoxy]-3-[7-[2-[3-(2,4-dioxohexahydropyrimidin-1-yl)-5-fluoro-1-methyl-indazol-6-yl]-2-azaspiro[3.3]heptan-6-yl]-7-azaspiro[3.5]nonan-2-yl]-4-oxo-quinazoline]		< 1 µM	50 to 90%	

Further lines, with some results ahead:

GI50	GI50 (Homo sapiens, 96 h)	Structure (SMILES)	Emax [1]	CTGlo A375.11 96 hours Emax (lowest % viability achieved)
< 1 µM		CCN(C)S(=O)(=O)Nc1ccc(F)c(Oc2ccc3ncn(C4CC5(C4)CN(C4CCC(c6cc7c(cc6F)c(N6CCC(=O)NC6=O)nn7C)CC4)C5)c(=O)c3c2)c1C#N (single isomer, unassigned) [Compound 204, 6-[2-cyano-3-[[ethyl(methyl)sulfamoyl]amino]-6-fluoro-phenoxy]-3-[2-[4-[3-(2,4-dioxohexahydropyrimidin-1-yl)-5-fluoro-1-methyl-indazol-6-yl]cyclohexyl]-2-azaspiro[3.3]heptan-6-yl]-4-oxo-quinazoline]		** (<90% and >50%)
< 1 µM		CCN(C)S(=O)(=O)Nc1ccc(F)c(Oc2ccc3ncc(OC4CC5(CCN(C6CCC(c7cc8c(cc7F)c(N7CCC(=O)NC7=O)nn8C)CC6)CC5)C4)nc3c2)c1C#N (single isomer, unassigned) [Compound 218, 7-[2-cyano-3-[[ethyl(methyl)sulfamoyl]amino]-6-fluoro-phenoxy]-2-[[7-[4-[3-(2,4-dioxohexahydropyrimidin-1-yl)-5-fluoro-1-methyl-indazol-6-yl]cyclohexyl]-7-azaspiro[3.5]nonan-2-yl]oxy]quinoxaline]	50 to 90%	
	< 1 µM	CCN(C)S(=O)(=O)Nc1ccc(F)c(Oc2ccc3ncn([C@H]4COC5(CCC(N6CC7(CN(c8cc9c(cc8F)c(N8CCC(=O)NC8=O)nn9C)C7)C6)CC5)C4)c(=O)c3c2)c1C#N (stereo partly drawn) [Compound 27, 6-[2-cyano-3-[[ethyl(methyl)sulfamoyl]amino]-6-fluoro-phenoxy]-3-[(3R)-8-[6-[3-(2,4-dioxohexahydropyrimidin-1-yl)-5-fluoro-1-methyl-indazol-6-yl]-2,6-diazaspiro[3.3]heptan-2-yl]-1-oxaspiro[4.5]decan-3-yl]-4-oxo-quinazoline]	< 50%	
	1 to 10 µM	CCN(C)S(=O)(=O)Nc1ccc(F)c(Oc2ccc3ncn([C@H]4COC5(CCC(N6CCN(c7ccc(NC8CCC(=O)NC8=O)cc7F)CC6)CC5)C4)c(=O)c3c2)c1C#N (stereo partly drawn) [Compound 40, 6-[2-cyano-3-[[ethyl(methyl)sulfamoyl]amino]-6-fluoro-phenoxy]-3-[(3R)-8-[4-[4-[(2,6-dioxo-3-piperidyl)amino]-2-fluoro-phenyl]piperazin-1-yl]-1-oxaspiro[4.5]decan-3-yl]-4-oxo-quinazoline]	50 to 90%	
	1 to 10 µM	Cn1nc(N2CCC(=O)NC2=O)c2cc(F)c(N3CC4(CC(N5CCC6(CC5)C[C@@H](n5cnc7ccc(Oc8c(F)ccc(NS(=O)(=O)N9CC[C@@H](F)C9)c8C#N)cc7c5=O)CO6)C4)C3)cc21 [Compound 133, (3R)-N-[2-cyano-3-[3-[(3R)-8-[2-[3-(2,4-dioxohexahydropyrimidin-1-yl)-5-fluoro-1-methyl-indazol-6-yl]-2-azaspiro[3.3]heptan-6-yl]-1-oxa-8-azaspiro[4.5]decan-3-yl]-4-oxo-quinazolin-6-yl]oxy-4-fluoro-phenyl]-3-fluoro-pyrrolidine-1-sulfonamide]	< 50%	
	< 1 µM	CC(C)S(=O)(=O)Nc1ccc(F)c(Oc2ccc3ncn([C@H]4COC5(CCN(C6CC7(C6)CN(c6cc8c(cc6F)c(N6CCC(=O)NC6=O)nn8C)C7)CC5)C4)c(=O)c3c2)c1C#N [Compound 134, N-[2-cyano-3-[3-[(3R)-8-[2-[3-(2,4-dioxohexahydropyrimidin-1-yl)-5-fluoro-1-methyl-indazol-6-yl]-2-azaspiro[3.3]heptan-6-yl]-1-oxa-8-azaspiro[4.5]decan-3-yl]-4-oxo-quinazolin-6-yl]oxy-4-fluoro-phenyl]propane-2-sulfonamide]	50 to 90%	
	< 1 µM	CO[C@@H]1CCN(S(=O)(=O)Nc2ccc(F)c(Oc3ccc4ncn([C@H]5COC6(CCN(C7CC8(C7)CN(c7cc9c(cc7F)c(N7CCC(=O)NC7=O)nn9C)C8)CC6)C5)c(=O)c4c3)c2C#N)C1 [Compound 144, (3R)-N-[2-cyano-3-[3-[(3R)-8-[2-[3-(2,4-dioxohexahydropyrimidin-1-yl)-5-fluoro-1-methyl-indazol-6-yl]-2-azaspiro[3.3]heptan-6-yl]-1-oxa-8-azaspiro[4.5]decan-3-yl]-4-oxo-quinazolin-6-yl]oxy-4-fluoro-phenyl]-3-methoxy-pyrrolidine-1-sulfonamide]	< 50%	
	1 to 10 µM	CN(CCO)S(=O)(=O)Nc1ccc(F)c(Oc2ccc3ncn(C4CC5(CCN(C6CC7(C6)CN(c6cc8c(cc6F)c(N6CCC(=O)NC6=O)nn8C)C7)CC5)C4)c(=O)c3c2)c1C#N (centres unmarked) [Compound 151, 6-[2-cyano-6-fluoro-3-[[2-hydroxyethyl(methyl)sulfamoyl]amino]phenoxy]-3-[7-[2-[3-(2,4-dioxohexahydropyrimidin-1-yl)-5-fluoro-1-methyl-indazol-6-yl]-2-azaspiro[3.3]heptan-6-yl]-7-azaspiro[3.5]nonan-2-yl]-4-oxo-quinazoline]	> 90%	
